The record followed here is patent US20090209528A1, “SUBSTITUTED TETRAHYDROISOQUINOLINE COMPOUND, THEIR PREPARATION AND USE IN MEDICAMENTS” (LABORATORIOS DEL DR. ESTEVE S.A., priority 2006, published 2009).

The test deals with T1, 5HT6-human recombinant receptor (Homo sapiens, UniProt P50406).
T1 construct: purchased Receptor Biology; host or cells: HEK-293 cell membranes
Briefly: Binding to serotonin receptor 5-HT6 ([3H]-LSD displacement). Particulars: radioligand [3H]-LSD 2.7 nM; for inhibition at 0.01 µM / inhibition at 0.1 µM: 1 h; for Ki: membranes of HEK-293 cells expressing the receptor, 60 min, 37° C. On the procedure: Cell membranes of HEK-293 cells expressing the 5HT6-human recombinant receptor were supplied by Receptor Biology. In said membranes the receptor concentration is 2.18 pmol/mg protein and the protein concentration is 9.17 mg/ml. The experimental protocol follows the method of B. L. Roth et al. [B. L. Roth, S. C. Craigo, M. S. Choudhary, A. Uluer, F. J. Monsma, Y. Shen, H. Y. Meltzer, D. R. Sibley: Binding of Typical and Atypical Antipsychotic Agents to 5-Hydroxytryptamine-6 and Hydroxytryptamine-7 Receptors. The Journal of Pharmacology and Experimental Therapeutics, 1994, 268, 1403] with the following slight changes. The respective part of the literature description is hereby incorporated by reference and forms part of the disclosure.
The commercial membrane is diluted (1:40 dilution) with the binding buffer: 50 mM Tris-HCl, 10 mM MgCl2, 0.5 mM EDTA (pH 7.4). The radioligand used is [^3H]-LSD at a concentration of 2.7 nM with a final volume of 200 μl. Incubation is initiated by adding 100 μl of membrane suspension, (≈22.9 μg membrane protein), and is prolonged for 60 minutes at a temperature of 37° C. The incubation is ended by fast filtration in a Brandel Cell Harvester through fiber glass filters made by Schleicher & Schuell GF 3362 pretreated with a solution of polyethylenimine at 0.5%. The filters are washed three times with three milliliters of buffer Tris-HCl 50 mM pH 7.4. The filters are transferred to flasks and 5 ml of Ecoscint H liquid scintillation cocktail are added to each flask. The flasks are allowed to reach equilibrium for several hours before counting with a Wallac Winspectral 1414 scintillation counter. Non-specific binding is determined in the presence of 100 μM of serotonin. Tests were made in triplicate. The inhibition constants (Ki, nM) were calculated by non-linear regression analysis using the program EBDA/LIGAND described in Munson and Rodbard, Analytical Biochemistry, 1980, 107, 220, the respective part of which is hereby incorporated by reference and forms part of the disclosure.

Counter-ions that a name gives are not always drawn.

T1 sequence (P50406 whole entry): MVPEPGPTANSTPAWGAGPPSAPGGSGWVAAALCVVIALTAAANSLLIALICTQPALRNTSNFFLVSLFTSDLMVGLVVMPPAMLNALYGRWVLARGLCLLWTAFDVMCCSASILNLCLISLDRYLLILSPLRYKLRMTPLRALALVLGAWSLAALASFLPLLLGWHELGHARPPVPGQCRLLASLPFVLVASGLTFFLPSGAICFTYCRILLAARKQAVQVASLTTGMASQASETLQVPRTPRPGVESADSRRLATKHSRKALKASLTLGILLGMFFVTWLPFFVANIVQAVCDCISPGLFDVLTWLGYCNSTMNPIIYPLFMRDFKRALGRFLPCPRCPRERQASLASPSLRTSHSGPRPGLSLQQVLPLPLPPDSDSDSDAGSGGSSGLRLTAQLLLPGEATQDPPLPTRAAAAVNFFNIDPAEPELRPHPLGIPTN

The inhibition is the share of the control response that was lost under treatment. What is called Ki is the equilibrium dissociation constant of an inhibitor or competing ligand from its target. `CN1CCc2ccc(NS(=O)(=O)c3c(Cl)nc4sccn34)cc2C1` [Example 53, 6-Chloro-imidazo[2,1-b]thiazole-5-sulfonic acid (2-methyl-1,2,3,4-tetrahydro-isoquinolin-7-yl)-amide hydrochloride]: the Ki came out at 3.8 ± 1 nM. Also, where the note is “compound at 10 nM”, the inhibition at 0.01 µM was found to be 55.4%. Further, the inhibition at 0.1 µM (compound at 100 nM) is 82.8%.
As for `O=S(=O)(Nc1ccc2c(c1)CNCC2)c1c(Cl)nc2sccn12` [Example 54, 6-Chloro-imidazo[2,1-b]thiazole-5-sulfonic acid (1,2,3,4-tetrahydro-iso-quinolin-7-yl)-amide hydrochloride], the Ki turned out to be 10.7 ± 4.8 nM. Besides, the inhibition at 0.01 µM (compound at 10 nM) worked out at 81%. Also, for the setting “compound at 100 nM”, the inhibition at 0.1 µM was found to be 91.9%.
On the same counts, the results for `Cc1ccc(S(=O)(=O)Nc2ccc3c(c2)CNCC3)c2ccccc12` [Example 55, 4-Methyl-naphthalene-1-sulfonic acid (1,2,3,4-tetrahydro-isoquinolin-7-yl)-amide hydrochloride] are 3.8 ± 1.2 nM, 82.3% and 84.9%.
For `Cc1ccc(S(=O)(=O)Nc2ccc3c(c2)CN(C)CC3)c2ccccc12` [Example 56, 4-Methyl-naphthalene-1-sulfonic acid (2-methyl-1,2,3,4-tetrahydro-isoqui-nolin-7-yl)-amide hydrochloride], in that order: 10.3 nM, 86.8% and 92.8%.
For the molecule `Cc1c(S(=O)(=O)Nc2ccc3c(c2)CNCC3)sc2ccc(Cl)cc12` [Example 60, 5-Chloro-3-methyl-benzo[b]thiophene-2-sulfonic acid (1,2,3,4-tetrahydro-isoquinolin-7-yl)-amide hydrochloride], the Ki was 49.4 ± 8.2 nM. Also, for the setting “compound at 10 nM”, the inhibition at 0.01 µM stood at 44.8%. Moreover, the inhibition at 0.1 µM (compound at 100 nM) stood at 65.1%.
On the same counts, the results for `O=S(=O)(Nc1ccc2c(c1)CNCC2)c1cccc2ccccc12` [Example 61, Naphthalene-1-sulfonic acid (1,2,3,4-tetrahydro-isoquinolin-7-yl)-amide hydrochloride] are 3.2 ± 0.4 nM, 78.6% and 85.5%.
For `O=S(=O)(Nc1ccc2c(c1)CNCC2)c1ccccc1-c1ccccc1` [Example 62, Biphenyl-2-sulfonic acid (1,2,3,4-tetrahydro-isoquinolin-7-yl)-amide hydrochloride], in that order: 2.4 ± 0.5 nM, 89% and 86.4%.
For `Cc1c(S(=O)(=O)Nc2ccc3c(c2)CNCC3)sc2ccc(F)cc12` [Example 64, 5-Fluoro-3-methyl-benzo[b]thiophene-2-sulfonic acid (1,2,3,4-tetrahydro-isoquinolin-7-yl)-amide hydrochloride], in that order: 55.8 ± 24.1 nM, 41.9% and 66.9%.
With `O=S(=O)(Nc1ccc2c(c1)CNCC2)c1cccc2nonc12` [Example 72, Benzo[1,2,5]oxadiazole-4-sulfonic acid (1,2,3,4-tetrahydro-isoquinolin-7-yl)-amide hydrochloride], the Ki amounted to 54.6 nM. Besides, the inhibition at 0.01 µM (compound at 10 nM) was 45.5%. For the same molecule, under “compound at 100 nM”, the inhibition at 0.1 µM came out at 64.7%.
For `Cc1ccc2nsnc2c1S(=O)(=O)Nc1ccc2c(c1)CNCC2` [Example 76, 5-Methylbenzo[1,2,5] thiadiazole-4-sulfonic acid (1,2,3,4-tetrahydro-isoquinolin-7-yl)-amide hydrochloride], in that order: 19.2 ± 2.4 nM, 73.1% and 83.2%.
For `O=S(=O)(Nc1ccc2c(c1)CNCC2)c1csc2ccccc12` [Example 78, Benzo[b]thiophene-3-sulfonic acid (1,2,3,4-tetrahydro-isoquinolin-7-yl)-amide hydrochloride], in that order: 2.1 nM, 77.5% and 85.8%.
For `O=S(=O)(Nc1ccc2c(c1)CNCC2)c1ccc(F)c2ccccc12` [Example 80, 4-Fluoro-naphthalene-1-sulfonic acid (1,2,3,4-tetrahydro-isoquinolin-7-yl)-amide hydrochloride], in that order: 6.5 ± 0.5 nM, 70% and 83.6%.
On to `O=S(=O)(Nc1ccc2c(c1)CNCC2)c1ccc(Cl)c2ccccc12` [Example 81, 4-Chloro-naphthalene-1-sulfonic acid (1,2,3,4-tetrahydro-isoquinolin-7-yl)-amide hydrochloride], for which the Ki is 9.4 ± 3.7 nM. Besides, the inhibition at 0.01 µM (compound at 10 nM) turned out to be 70.3%. Besides, the inhibition at 0.1 µM (compound at 100 nM) was determined as 84.1%.
On the same counts, the results for `CCc1ccc(OC)c(S(=O)(=O)Nc2ccc3c(c2)CNCC3)c1` [Example 86, 5-Ethyl-2-methoxy-N-(1,2,3,4-tetrahydro-isoquinolin-7-yl)-benzenesulfonamide hydrochloride] are 6.1 ± 0.7 nM, 78.9% and 88.4%.
Take `O=S(=O)(Nc1ccc2c(c1)CCNC2)c1ccc2ccccc2c1` [Example 153, Naphthalene-2-sulfonic acid (1,2,3,4-tetrahydro-isoquinolin-6-yl)-amide]: the Ki was found to be 8.7 ± 0.4 nM. The “Binding % [10 nM]” value (compound at 10 nM) was 52.9%. Further, the “Binding % [100 nM]” value (compound at 100 nM) worked out at 88.2%.
Turning to `O=S(=O)(Nc1ccc2c(c1)CNCC2)c1cccc2c(Cl)cccc12` [Example 154, 5-Chloro-naphthalene-1-sulfonic acid (1,2,3,4-tetrahydro-isoquinolin-7-yl)-amide Hydrochloride], the Ki stood at 39.7 ± 7.4 nM. In addition, the inhibition at 0.01 µM (compound at 10 nM) was determined as 65.7%. Further, under “compound at 100 nM”, the inhibition at 0.1 µM came to 85.1%.
